| melting point [°C] | Compound |
| --- | --- |
| 72 to 74 | CCOC(=O)C(C(=O)OCC)c1cccc2nnsc12 |
| 126 to 128 | O=C(c1ccc(Cl)cc1)C(Cn1cncn1)c1ccc(Cl)cc1 (stereo not drawn) |
| 60 | COCCOCOc1ccc2cc(C(=O)N(C)Cc3cccc(-c4ccc(Nc5cccc(C(=O)O)c5)cc4)c3)ccc2c1 |
| 188 to 190 | NN1CCN(C2c3ccccc3C=C(Br)c3ccccc32)CC1 (stereo not drawn) |
| 145 to 157 | CC(=O)NNC(=S)Nc1cc(C)ccc1Cl |
| 178 to 179 | CCOC(=O)C1NC(C(=O)O)c2[nH]c3cccc(OCc4cccc(Cl)c4)c3c2C1COC (stereo not drawn) |
| 149 to 150 | Clc1ccc(Cn2cnc3ccc(Cl)nc32)c(Cl)c1 |
| 178 to 180 | CC(O)CC#Cc1cc(CN2CCOCC2)cc2c(=O)c(C(=O)NCc3ccc(Cl)cc3)cn(C)c12 (stereo not drawn) |
| 157 to 159 | COCc1cn(-c2cccc(C(F)(F)F)c2)nc(C(=O)N(C)OC)c1=O |
| 90 to 91 | NNC(=O)c1cc2cc(Cl)ccc2s1 |
| 59 to 61 | CCOC(=O)c1c(C)nn(-c2ccccc2N)c1C |
| 150 to 152 | O=C(c1ccc(C2CCCCC2)cc1)N1Cc2cccn2Cc2ncccc21 |
| 254 to 257 | O=C(O)COc1ccc2c(-c3ccc(Cl)cc3)noc2c1Cl |
| 142 to 144 | O=C(CCS(=O)(=O)CCOCCc1ccccc1)NCCc1ccc(O)c2[nH]c(=O)sc12 |
| 255 | O=c1nc(-c2cccc(Cl)c2)c2cc(C(c3ccc(Cl)cc3)n3ccnc3)ccc2[nH]1 (stereo not drawn) |
| 68 to 69 | CCCCCCCCCCCC#Cc1ccccc1C=C(C(=O)OCC)P(=O)(O)O |
| 234 | O=C(O)c1cc(-c2ccccc2)c2sccc2c1 |
| 68 to 69 | O=Cc1c2ccccc2c(OCCOCc2ccccc2)c2ccccc12 |
| 112 to 113 | CCOC(=O)c1[nH]c(COC)nc1C(C)(C)O |
| 172 to 174 | COc1cccc2c(CCNC3COc4c(F)ccc(C(N)=O)c4C3)coc12 (stereo not drawn) |
| 179 to 182 | O=C(CNc1ccc2cn[nH]c2c1)N1CCC(Cc2ccccc2)CC1 |
| 250 to 251 | O=c1ccc(-c2ccc3c(c2)CCN(C2CCC2)CC3)n[nH]1 |
| 65 to 70 | Cc1ccc(Cl)c(C2CCc3c(C)cnnc3C2)c1 (stereo not drawn) |
| 170 | CN(CCCN1CCN(c2ccccc2C2CC2)CC1)c1nccc(C(N)=O)n1 |

| melting point [°C] | Compound |
| --- | --- |
| 153 | CCOC(=O)C1=C(C(=O)OCC)C(c2cccc([N+](=O)[O-])c2)C(C(=O)OCC)=C(CC)N1 (stereo not drawn) |
| 198 to 200 | CC(C)Oc1ccc(-c2nn(C(C)c3oc4ccccc4c(=O)c3-c3cccc(F)c3)c3ncnc(N)c23)cc1Cl (stereo not drawn) |
| 186 to 189 | CNC(=O)c1c(N)cccc1OC |
| 112 to 114 | COC(=O)C(C)(C)C(=O)OCOC1=C(C(=O)Nc2ccccn2)N(C)S(=O)(=O)c2ccccc21 |
| 69 to 72 | COc1ccc(C(=O)c2c(N(C)C)sc3cc(OCc4ccccc4)ccc23)cc1OC |
| 134 to 135 | CCOC(=O)c1c(SC)c(N=O)c2ccccn12 |
| 225 to 227 | CN1C(=O)C(Cc2ccncc2)(Cc2ccncc2)NC1=S |
| 159 to 160 | CS(=O)(=O)C(S(C)(=O)=O)S(=O)(=O)Oc1ccccc1 |
| 163 to 164 | O=C(Nc1cc2ncc(CN3CCCC3)cc2cc1F)c1ccc(-c2ccccc2)cc1F |
| 133 to 136 | CCc1cc(C(=O)c2ccccc2Cl)c(-n2c(C)nnc2CNC(=O)c2cccc(C(=O)O)c2)s1 |
| 111 to 113 | Cc1cccc2oc3cc(Cl)ccc3c(=O)c12 |
| 103 to 105 | c1ccc(COC2CCN(Cc3cc4ccccc4[nH]3)CC2)cc1 |
| 115 | Cc1ccc(=NC(=O)C(F)(F)F)n(-c2cccc(C(F)(F)F)c2)c1 |
| 204 to 206 | CCCCNC(=O)Nc1ccccc1C(=O)NC1CCN(C(c2ccccc2)c2ccccc2)CC1 |
| 192 to 193 | CC(=O)OC1CCC2(C)C(CCC3C2CCC2(C)C(N)C(O)CC32)C1 (stereo not drawn) |
| 198 to 201 | O=c1[nH]cnc2c1ncn2[C@@H]1C[C@H](O)[C@@H](O)[C@H]1O (racemic) |
| 159 | Cc1ccc(S(=O)(=O)Oc2cc(C=O)cc(OS(=O)(=O)c3ccc(C)cc3)c2OS(=O)(=O)c2ccc(C)cc2)cc1 |
| 249 to 255 | C=C(C)n1cc(C(=O)O)c(=O)c2cc(F)c(N3CC[C@H](N)C3)cc21 |
| 108 to 110 | CCOC(=O)c1cnoc1-c1ccc(Cl)c(Cl)c1 |
| 81 to 83 | COC(=O)c1cc(C)c(OCCNC(=O)C2Cc3ccccc3N2S(=O)(=O)c2ccc(-c3cccc(C(F)(F)F)c3)cc2)c(C)c1 (stereo not drawn) |
| 143 to 145 | O=C(O)C(CC1CCCC1)c1ccc(S(=O)(=O)C(F)(F)F)cc1 (stereo not drawn) |
| 161 to 164 | Cn1c(COc2ccc(CC3SC(=O)NC3=O)cc2)nc2ccc(Oc3cccc(NC(=O)Nc4ccccc4C(F)(F)F)c3)cc21 (stereo not drawn) |
| 123 to 124 | C=CCNc1nc(N2CCCCC2)c2cc([N+](=O)[O-])ccc2n1 |
| 187 to 189 | Clc1cccc(Cl)c1Cn1c(-c2ccc3c(c2)OCO3)nc2ccccc21 |

| melting point [°C] | Compound |
| --- | --- |
| 179 to 184 | CC(C)N(c1nc(Cl)nc(N2C(C)(C)CC3(CC2(C)C)OCCO3)n1)C(C)C |
| 257 to 260 | CC(Nc1ccccc1O)=C1C(=O)OC(=O)C(C(=O)C=Cc2ccc(O)cc2)=C1O |
| 115 | CCCOCCOc1ccc(OCC(O)CNCCNC(N)=O)cc1 (stereo not drawn) |
| 190 to 201 | CCCC(=O)Nc1ccc(N2CCC(NC[C@H](O)COc3cccc4[nH]c(=O)[nH]c34)CC2)cc1 |
| 194 to 195 | Cc1c(-c2cccc(C(F)(F)F)c2)oc2c(-c3ccc(F)cc3)c(-c3ccc(S(C)(=O)=O)cc3)nn12 |
| 56 to 58 | CN(C)Cc1ccccc1Sc1ccc(F)cc1N |
| 145 to 147 | Cc1c(OCc2ccccc2)c(=O)ccn1CCCCCC(=O)O |
| 235 to 238 | CCC1(CC(=O)O)OCC(=O)c2c1[nH]c1ccccc21 (stereo not drawn) |
| 173 to 175 | Nc1ccc2ncnc(Nc3ccc(OCc4ccccc4)cc3)c2c1 |
| 255 to 256 | O=C(c1ccc([N+](=O)[O-])cc1)N1CCc2cn[nH]c2-c2ncccc21 |
| 131 to 132 | CCn1c2ccccc2c2cc(C=Cc3ccc(N)cc3)ccc21 |
| 138 to 139 | Nc1c(Cl)cc(S(=O)(=O)C(F)(F)F)cc1[N+](=O)[O-] |
| 218 to 222 | CCCCn1c(O)cc(C)c(C#N)c1=O |
| 97 to 98 | Cc1cc(SC(C)C)c(NC(=O)CCCCCCCCSc2nc3cccc(C(F)(F)F)c3o2)c(SC(C)C)n1 |
| 172 to 174 | Nc1sc(-c2ccc(F)cc2)cc1C(=O)O |
| 67 to 68 | OC(c1ccc(Cl)cc1)c1cccc(Br)c1 (stereo not drawn) |
| 65 to 75 | COc1ccc(CCc2oc3ccc(Br)cc3c2CO)cc1 |
| 62.5 to 63.5 | COC(=O)CCCCCCC1=CCC(O)C1=O (stereo not drawn) |
| 114 to 115 | C[Si](C)(C)CCSCCCNC(=O)n1cc(F)c(=O)[nH]c1=O |
| 166 to 168 | COc1ccc(C2=NNC(=O)[C@H]3CC=CC[C@@H]23)cc1OC1CCCC1 (relative stereo) |
| 162 to 163 | CC(C)n1nc(-c2cc(C(=O)NCCN3CCOCC3)cnc2-c2ccccc2)ccc1=O |
| 97.5 to 98.5 | NS(=O)(=O)NCC1COc2ccccc2O1 (stereo not drawn) |
| 254 to 257 | CNc1nc(N(C2CC(C)(C)N(O)C(C)(C)C2)C2CC(C)(C)N(O)C(C)(C)C2)nc(N(C2CC(C)(C)N(O)C(C)(C)C2)C2CC(C)(C)N(O)C(C)(C)C2)n1 |
| 183 | CCNC(=O)c1ccc(-c2ccc(-c3ccccc3)c(-c3ccc4c(c3)C(C)(C)CCC4(C)C)c2)cc1 |

| melting point [°C] | Compound |
| --- | --- |
| 153 to 154 | CC(=O)Nc1nc(CCc2ccc(CCBr)cc2)cs1 |
| 235 | COc1cc2c(cc1OC)CC(=O)NC(=O)C2 |
| 186 to 187 | CCn1ncc2c(NCC3CCCCC3)c3cc(S(C)=O)ccc3nc21 (stereo not drawn) |
| 96 to 98 | Cc1cccc(CCCCCCCCC(=O)Cl)c1 |
| 265 to 267 | CC(=O)NC1C(NC(=N)N)C=C(C(=O)O)OC1C(OC(=O)NCCCO)C(O)CO (stereo not drawn) |
| 79 | O=C(O)CCc1cc2cc(Cl)ccc2n1S(=O)(=O)c1ccc2[nH]ccc2c1 |
| 200 to 201 | CC(=O)Nc1c(OC(C)=O)cc(C(C)(C)C)cc1[N+](=O)[O-] |
| 113 to 115 | Cc1c(C)c2c(c(C)c1N)CC(C)(CN1CCN(C(=O)C(c3ccccc3)c3ccccc3)CC1)O2 (stereo not drawn) |
| 144 to 146 | N#Cc1cc(-n2cccc2)cnc1Cl |
| 174 | CCN1c2ncc(CCc3ccncc3)cc2C(=O)N(C)c2ccc(I)nc21 |
| 175 | O=c1n(-c2ccccc2)c(=O)n(SC(Cl)(Cl)Cl)n1SC(Cl)(Cl)Cl |
| 134 to 137 | CC(C)(C)c1cc(SC2CC(=O)N(c3ccccc3)C2=O)cc(C(C)(C)C)c1O (stereo not drawn) |
| 93 to 95 | CON=C(C(=O)OC)c1ccc(O)c([N+](=O)[O-])c1 |
| 230 to 231 | CCCCNc1cc(C(=O)O)cc(S(N)(=O)=O)c1Nc1ccccc1 |
| 66 to 68 | CCCc1cccn1NS(=O)(=O)C1CCCC=C1C(=O)OCC (stereo not drawn) |
| 145 | O=C(NCCc1ccccc1)c1ccccc1-c1ccccc1CNS(=O)(=O)c1cccc([N+](=O)[O-])c1 |
| 48 to 50 | CN1C(=O)C(=O)N(CCCCCBr)C1=S |
| 230 to 232 | CC(=O)Oc1cc(OC(C)=O)c2ccc(=O)[nH]c2c1 |
| 92 to 93 | COC(=O)c1ccc(F)cc1C#N |
| 100 to 102 | O=C(O)CCCc1cccc(OCc2ccccc2)c1 |
| 410 to 420 | O=c1ccn(-c2cc3[nH]c(=O)c(=O)[nH]c3cc2C(F)(F)F)cc1 |
| 133 | CCC1CC(=O)N(Cc2ccc(NC(C)=O)cc2)N=C1c1ccc(OC)c(OC)c1 (stereo not drawn) |

| Compound | melting point [°C] |
| --- | --- |
| COc1ccc(-c2cc(=O)c3c(OC)cc(OC)c(C4=CCN(C)CC4)c3o2)cc1 | 179 to 181 |
| CCOc1cc2c(cc1OC)C(c1ccc(OC)c(OC)c1)=NN=C(C)C2CC (stereo not drawn) | 125 to 127 |
| O=C1Nc2ccc(F)nc2N2CCNCC12 (stereo not drawn) | 305 to 308 |
| Cc1noc(-c2ncn3c2[C@@H]2CCCN2C(=O)c2c(Cl)cccc2-3)n1 | 230 to 231 |

Source: a melting point compilation (Tetko et al.; mined from patent text by program, amines drawn as free bases though some values may be those of a salt)
